The values below come from patent publication US5028427A, “"Cephalosporin" compounds” (Beecham Group p.l.c., priority 1987, dated 1991).

What all share (assay): MIC by serial dilution in nutrient agar
Holding throughout (assay type): cell-based

Assay [1] has as its system Serratia marcescens HCN 3956. The following applies: HCN3956, nutrient agar (Oxoid), 10^4 colony forming units, overnight at 37° C.
Assay [2] relates to Staphylococcus aureus Oxford. The following applies: nutrient agar (Oxoid), 10^4 colony forming units, overnight at 37° C.
Assay [3] relates to Serratia marcescens US32. The note with it: Serratia marcescens US 32, nutrient agar (Oxoid), 10^4 colony forming units, overnight at 37° C.
The test system of assay [4] is Pseudomonas aeruginosa NCTC 10662. The following applies: NCTC10662, nutrient agar (Oxoid), 10^4 colony forming units, overnight at 37° C.
Assay [5] deals with Enterobacter cloacae P99.

Converted amounts (≈) assume the structure as drawn.

For `CCN1CCN(C(=O)NC(C(=O)NC2(NC=O)C(=O)N3C(C(=O)[O-])=C(C[n+]4ccccc4)CSC32)c2ccc(OC(C)=O)c(OC(C)=O)c2)C(=O)C1=O` [Compound A, 7β-[D-2-(3,4-diacetoxyphenyl)-2-[(4-ethyl-2,3-dioxopiperazin-1-yl)carbonylamino]acetamido]-7α-formamido-3-(pyridinium)methyl-ceph-3-em-4-carboxylate], the MIC (commonly the smallest concentration in the dilution series that meets the test's criterion for growth inhibition) in assay [1] came to 16 mg/L (≈ 21.3 µM); in assay [2], 16 mg/L (≈ 21.3 µM); in assay [3], 0.5 mg/L (≈ 0.665 µM); in assay [4], 2 mg/L (≈ 2.66 µM); in assay [5], 8 mg/L (≈ 10.6 µM).
As to `CCN1CCN(C(=O)NC(C(=O)NC2(NC=O)C(=O)N3C(C(=O)[O-])=C(C[n+]4ccccc4)CSC32)c2ccc(O)c(O)c2)C(=O)C1=O` [Example 1, 7β-[D-2-(3,4-Dihydroxyphenyl)-2-[(4-ethyl-2,3-dioxopiperazin-1-yl)carbonylamino]acetamido]-7α-formamido-3-(pyridinium)methyl-ceph-3-em-4-carboxylate], the MIC in assay [1] stood at 2 mg/L (≈ 3 µM); in assay [2], 8 mg/L (≈ 12 µM); in assay [3] it was 0.12 mg/L (≈ 0.18 µM); in assay [4] it was 0.5 mg/L (≈ 0.749 µM); in assay [5], 2 mg/L (≈ 3 µM).
